# Results published in US8192962B2, “Processes for detecting toxic substances” (Daikin Industries, Ltd., priority 2001, dated 2012).
# System: Genes belonging to other category
# Assay: DNA chip mRNA expression in yeast, genes belonging to other category (Table 9)
# Type: cell-based, Saccharomyces cerevisiae S288C
# Procedure: Yeast (Saccharomyces cerevisiae S288C (α SUC2mal mel gap2 CUP1)) were incubated at 25° C. on YPD medium (yeast extract 1%, polypepton 2%, glucose 2%). One of toxic chemical substances was added to the cells at logarithmic growth phase, and the cells were further incubated for two hours. Cells were cultured without any chemical substance in the same condition, and were used as control. Concentrations of the chemical substances were defined to inhibit the growth of the yeast but not lead to death.
# After completion of the incubation, the culture was centrifuged to collect the cells. To the cells, sodium acetate buffer (50 mM sodium acetate, 10 mM EDTA, 1% SDS) was added, and the mixture was shaken at 65° C. for five minutes, followed by returning to room temperature, and obtaining the supernatant, of which the procedures were repeated two times. To the supernatant, ½ amount of a solution of phenol/chloroform was added, and the mixture was centrifuged to give a supernatant, which was added with an equal amount of chloroform, and the mixture was centrifuged to give a supernatant. To the supernatant, an equal amount of isopropanol containing 0.3 M sodium acetate was added, and the mixture was allowed to stand at room temperature for 30 minutes, after which the mixture was centrifuged to give a sediment of the whole RNAs. Seventy % ethanol was added to the sediment, and the mixture was again centrifuged to give a sediment, which was then dried and dissolved in water. mRNA was isolated from the whole RNAs as followings. In view of the fact that a poly A chain is attached to the 3′ terminus of mRNA, a polynucleotide having a poly T structure which was immobilized on the surface of latex beads was used to trap the mRNA, and then the mRNA was washed and eluted with spine column (Oligotex-dT30<Super>mRNA Purification Kit, Takara). Reverse transcription of the mRNA was conducted with a reverse transcriptase (Super Script II Reverse Transcriptase; catalogue No. 18064-014, GibcoBRL) using fluorescence-labeled nucleotides to give cDNAs that were introduced with Cy3-dUTP or Cy5-dUTP during the reverse transcription.
# The labeled cDNAs were dissolved in TE buffer (10mM Tris-HCl/1 mM EDTA, pH8.0), and the solution was dropped on the DNA chip containing the whole genes of yeast (DNA Chip Research Inc. Japan) so that the cDNAs were hybridized on the DNA chip at 65° C. for over 12 hours. The fluoresces intensity of the DNA chip was read with a scanner, and the ratio relative to the fluorescence intensity resulting from the absence of chemical substance was estimated as the following, which is shown in Tables 1 to 9: […]
compound,measurement,setting,value
"CCCCC[C@H](O)CC(=O)CCc1ccc(O)c(OC)c1 [(13), gingerol]",The level of expressed mRNA in the presence of chemical substance/The level of expressed mRNA in the absence of chemical substance,yeast gene YAL007C,2.0
same,The level of expressed mRNA in the presence of chemical substance/The level of expressed mRNA in the absence of chemical substance,yeast gene YBL005W-A,2.9
same,The level of expressed mRNA in the presence of chemical substance/The level of expressed mRNA in the absence of chemical substance,yeast gene YBL041W,2.6
same,The level of expressed mRNA in the presence of chemical substance/The level of expressed mRNA in the absence of chemical substance,yeast gene YBL043W,1.8
same,The level of expressed mRNA in the presence of chemical substance/The level of expressed mRNA in the absence of chemical substance,yeast gene YBR109C,2.0
same,The level of expressed mRNA in the presence of chemical substance/The level of expressed mRNA in the absence of chemical substance,yeast gene YBR201W,1.9
same,The level of expressed mRNA in the presence of chemical substance/The level of expressed mRNA in the absence of chemical substance,yeast gene YCL020W,3.0
same,The level of expressed mRNA in the presence of chemical substance/The level of expressed mRNA in the absence of chemical substance,yeast gene YCL027W,1.1
same,The level of expressed mRNA in the presence of chemical substance/The level of expressed mRNA in the absence of chemical substance,yeast gene YCR004C,1.3
same,The level of expressed mRNA in the presence of chemical substance/The level of expressed mRNA in the absence of chemical substance,yeast gene YCR071C,1.3
same,The level of expressed mRNA in the presence of chemical substance/The level of expressed mRNA in the absence of chemical substance,yeast gene YCR088W,1.9
same,The level of expressed mRNA in the presence of chemical substance/The level of expressed mRNA in the absence of chemical substance,yeast gene YDL008W,2.0
same,The level of expressed mRNA in the presence of chemical substance/The level of expressed mRNA in the absence of chemical substance,yeast gene YDL097C,4.0
same,The level of expressed mRNA in the presence of chemical substance/The level of expressed mRNA in the absence of chemical substance,yeast gene YDL126C,4.3
same,The level of expressed mRNA in the presence of chemical substance/The level of expressed mRNA in the absence of chemical substance,yeast gene YDL212W,0.5
same,The level of expressed mRNA in the presence of chemical substance/The level of expressed mRNA in the absence of chemical substance,yeast gene YDL238C,2.0
same,The level of expressed mRNA in the presence of chemical substance/The level of expressed mRNA in the absence of chemical substance,yeast gene YDR055W,3.1
same,The level of expressed mRNA in the presence of chemical substance/The level of expressed mRNA in the absence of chemical substance,yeast gene YDR084C,1.0
same,The level of expressed mRNA in the presence of chemical substance/The level of expressed mRNA in the absence of chemical substance,yeast gene YDR085C,1.1
same,The level of expressed mRNA in the presence of chemical substance/The level of expressed mRNA in the absence of chemical substance,yeast gene YDR104C,1.6
same,The level of expressed mRNA in the presence of chemical substance/The level of expressed mRNA in the absence of chemical substance,yeast gene YDR115W,1.1
same,The level of expressed mRNA in the presence of chemical substance/The level of expressed mRNA in the absence of chemical substance,yeast gene YDR315C,1.6
same,The level of expressed mRNA in the presence of chemical substance/The level of expressed mRNA in the absence of chemical substance,yeast gene YDR358W,3.2
same,The level of expressed mRNA in the presence of chemical substance/The level of expressed mRNA in the absence of chemical substance,yeast gene YDR388W,1.7
same,The level of expressed mRNA in the presence of chemical substance/The level of expressed mRNA in the absence of chemical substance,yeast gene YDR481C,1.5
same,The level of expressed mRNA in the presence of chemical substance/The level of expressed mRNA in the absence of chemical substance,yeast gene YDR518W,1.8
same,The level of expressed mRNA in the presence of chemical substance/The level of expressed mRNA in the absence of chemical substance,yeast gene YEL042W,0.4
same,The level of expressed mRNA in the presence of chemical substance/The level of expressed mRNA in the absence of chemical substance,yeast gene YEL066W,1.6
same,The level of expressed mRNA in the presence of chemical substance/The level of expressed mRNA in the absence of chemical substance,yeast gene YER012W,2.9
same,The level of expressed mRNA in the presence of chemical substance/The level of expressed mRNA in the absence of chemical substance,yeast gene YER130C,1.6
same,The level of expressed mRNA in the presence of chemical substance/The level of expressed mRNA in the absence of chemical substance,yeast gene YER136W,1.3
same,The level of expressed mRNA in the presence of chemical substance/The level of expressed mRNA in the absence of chemical substance,yeast gene YFL022C,0.6
same,The level of expressed mRNA in the presence of chemical substance/The level of expressed mRNA in the absence of chemical substance,yeast gene YFL043C,1.5
same,The level of expressed mRNA in the presence of chemical substance/The level of expressed mRNA in the absence of chemical substance,yeast gene YGL158W,1.0
same,The level of expressed mRNA in the presence of chemical substance/The level of expressed mRNA in the absence of chemical substance,yeast gene YGL229C,1.7
same,The level of expressed mRNA in the presence of chemical substance/The level of expressed mRNA in the absence of chemical substance,yeast gene YGR136W,1.7
same,The level of expressed mRNA in the presence of chemical substance/The level of expressed mRNA in the absence of chemical substance,yeast gene YGR189C,1.2
same,The level of expressed mRNA in the presence of chemical substance/The level of expressed mRNA in the absence of chemical substance,yeast gene YGR257C,2.0
same,The level of expressed mRNA in the presence of chemical substance/The level of expressed mRNA in the absence of chemical substance,yeast gene YHR004C,1.1
same,The level of expressed mRNA in the presence of chemical substance/The level of expressed mRNA in the absence of chemical substance,yeast gene YHR071W,2.3
same,The level of expressed mRNA in the presence of chemical substance/The level of expressed mRNA in the absence of chemical substance,yeast gene YHR142W,1.2
same,The level of expressed mRNA in the presence of chemical substance/The level of expressed mRNA in the absence of chemical substance,yeast gene YIL123W,0.4
same,The level of expressed mRNA in the presence of chemical substance/The level of expressed mRNA in the absence of chemical substance,yeast gene YJL073W,1.6
same,The level of expressed mRNA in the presence of chemical substance/The level of expressed mRNA in the absence of chemical substance,yeast gene YJL089W,1.8
same,The level of expressed mRNA in the presence of chemical substance/The level of expressed mRNA in the absence of chemical substance,yeast gene YJR099W,1.5
same,The level of expressed mRNA in the presence of chemical substance/The level of expressed mRNA in the absence of chemical substance,yeast gene YJR122W,1.3
same,The level of expressed mRNA in the presence of chemical substance/The level of expressed mRNA in the absence of chemical substance,yeast gene YJR125C,1.5
same,The level of expressed mRNA in the presence of chemical substance/The level of expressed mRNA in the absence of chemical substance,yeast gene YKL008C,1.7
same,The level of expressed mRNA in the presence of chemical substance/The level of expressed mRNA in the absence of chemical substance,yeast gene YKL013C,1.3
same,The level of expressed mRNA in the presence of chemical substance/The level of expressed mRNA in the absence of chemical substance,yeast gene YKL039W,1.9
